From ChEMBL document CHEMBL1201862, “PubChem BioAssay data set” (2004)
The source made the active and inactive calls.

Experiments:
[1] = inhibition of ADAM10 peptide cleavage – biochemical, FRET peptide substrate, recombinant human ADAM10, selectivity assay for ADAM17 exosite inhibitor project, dose response (AID 743259);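 note: ADAM10 enzyme cleaving a FRET peptide substrate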
[2] = molecular target: T1, Disintegrin and metalloproteinase domain-containing protein 17 (Homo sapiens, UniProt P78536); assay: exosite inhibitors of ADAM17, dose response, biochemical (AID 743260)
T1 sequence (P78536 whole entry, the tested form may be a part): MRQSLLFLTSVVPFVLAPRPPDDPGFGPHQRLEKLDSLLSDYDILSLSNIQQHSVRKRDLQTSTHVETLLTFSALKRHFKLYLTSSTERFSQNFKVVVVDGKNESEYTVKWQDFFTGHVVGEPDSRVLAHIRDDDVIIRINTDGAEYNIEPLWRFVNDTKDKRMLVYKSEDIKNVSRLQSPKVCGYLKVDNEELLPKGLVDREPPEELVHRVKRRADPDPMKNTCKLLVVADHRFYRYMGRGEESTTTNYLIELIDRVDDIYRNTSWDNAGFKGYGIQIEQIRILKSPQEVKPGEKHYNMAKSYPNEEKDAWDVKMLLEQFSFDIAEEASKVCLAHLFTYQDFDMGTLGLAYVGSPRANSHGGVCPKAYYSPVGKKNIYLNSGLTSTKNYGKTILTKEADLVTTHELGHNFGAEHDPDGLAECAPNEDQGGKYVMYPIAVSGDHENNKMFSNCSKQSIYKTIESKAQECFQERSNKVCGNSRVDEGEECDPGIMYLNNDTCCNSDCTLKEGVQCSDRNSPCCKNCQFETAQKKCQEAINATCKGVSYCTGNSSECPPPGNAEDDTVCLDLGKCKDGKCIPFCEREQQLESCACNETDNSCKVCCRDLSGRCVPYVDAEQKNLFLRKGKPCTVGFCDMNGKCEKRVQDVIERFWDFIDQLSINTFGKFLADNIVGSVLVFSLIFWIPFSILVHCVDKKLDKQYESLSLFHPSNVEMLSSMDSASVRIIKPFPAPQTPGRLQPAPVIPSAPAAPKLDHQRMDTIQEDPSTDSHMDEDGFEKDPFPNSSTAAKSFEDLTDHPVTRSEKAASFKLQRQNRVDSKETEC

[3] = molecular target: T1, Disintegrin and metalloproteinase domain-containing protein 17; assay: inhibition of ADAM17 substrate cleavage – biochemical, quenched FRET substrate, counter-screen for ADAM10 exosite inhibitor project, dose response (AID 743253)
[4] = potency of ADAM10 substrate cleavage blockers – biochemical, QFRET, dose response (AID 743254);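 note: ADAM10 enzyme with the DM2 quenched FRET peptide as substrate; EDANS fluorescence gain as the protease cuts the substrate; inhibitor potency against ADAM10 proteolytic activity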
[5] = molecular target: T2, Probable nicotinate-nucleotide adenylyltransferase (Staphylococcus aureus (strain N315), UniProt P65502); format: functional, Staphylococcus aureus subsp. aureus N315;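 for IC50 Mean: confirmatory dose-response retesting of NadD inhibitor hits first found in an ultra-high-throughput screen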
T2 sequence (P65502 whole entry): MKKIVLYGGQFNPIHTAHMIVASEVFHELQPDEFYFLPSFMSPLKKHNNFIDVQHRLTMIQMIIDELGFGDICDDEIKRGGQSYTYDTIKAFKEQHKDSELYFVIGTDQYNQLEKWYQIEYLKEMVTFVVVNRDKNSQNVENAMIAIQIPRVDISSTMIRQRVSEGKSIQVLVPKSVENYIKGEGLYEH

[6] = molecular target: T2, Probable nicotinate-nucleotide adenylyltransferase; format: functional, Staphylococcus aureus subsp. aureus N315; settings: read-out: IC50_Mean
[7] = test system: Streptococcus sp. 'group A'; assay: Streptococcus pyogenes SK(-)GAS viability under kanamycin – luminescence, BacTiterGlo, confirmation, counter-screen for streptokinase expression inhibitor project, dose response (AID 1900); format: functional, organism-based
[8] = test system: Streptococcus; assay: GAS UMAA2166 growth inhibition – luminescence, BacTiterGlo, counter-screen for streptokinase expression inhibitor project, dose response (AID 1915); format: functional, organism-based;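 note: potency for reduction of bacterial viability or growth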
[9] = molecular target: T3, Fructose-bisphosphate aldolase (Mycobacterium tuberculosis, UniProt P9WQA3); assay: Fluorescence-based biochemical high throughput dose response assay for inhibitors of the fructose-bisphosphate aldolase (FBA) of M. tuberculosis.; format: functional
T3 sequence (P9WQA3 whole entry): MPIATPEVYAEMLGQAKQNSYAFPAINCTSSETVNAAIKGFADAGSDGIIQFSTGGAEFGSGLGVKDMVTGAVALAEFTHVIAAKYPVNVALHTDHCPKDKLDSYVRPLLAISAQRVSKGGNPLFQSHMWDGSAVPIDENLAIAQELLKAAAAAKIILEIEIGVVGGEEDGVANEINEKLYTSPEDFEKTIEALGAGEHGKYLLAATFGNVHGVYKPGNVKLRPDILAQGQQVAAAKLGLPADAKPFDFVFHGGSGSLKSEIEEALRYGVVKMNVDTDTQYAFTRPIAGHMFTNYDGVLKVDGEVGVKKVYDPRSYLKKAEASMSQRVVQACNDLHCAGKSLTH

[10] = molecular target: T4, fMet-Leu-Phe receptor (Homo sapiens, UniProt P21462); assay: formyl peptide receptor binders – dose response (AID 519); format: functional
T4 sequence (P21462 whole entry): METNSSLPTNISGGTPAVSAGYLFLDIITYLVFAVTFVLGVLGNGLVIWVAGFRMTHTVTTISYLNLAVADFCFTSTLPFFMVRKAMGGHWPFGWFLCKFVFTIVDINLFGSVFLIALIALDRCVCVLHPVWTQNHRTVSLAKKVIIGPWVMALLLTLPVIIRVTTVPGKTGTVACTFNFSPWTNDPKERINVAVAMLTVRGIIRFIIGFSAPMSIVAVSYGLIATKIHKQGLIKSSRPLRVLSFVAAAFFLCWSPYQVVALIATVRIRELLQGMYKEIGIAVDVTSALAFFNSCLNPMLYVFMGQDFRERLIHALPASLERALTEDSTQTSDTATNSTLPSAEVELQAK

[11] = molecular target: T5, Beta-lactamase (Pseudomonas aeruginosa, UniProt Q79MP6); assay: inhibition of IMP-1 beta-lactamase activity – biochemical, epi-absorbance, selectivity assay for VIM-2 inhibitor project, dose response (AID 1920)
T5 sequence (Q79MP6 whole entry): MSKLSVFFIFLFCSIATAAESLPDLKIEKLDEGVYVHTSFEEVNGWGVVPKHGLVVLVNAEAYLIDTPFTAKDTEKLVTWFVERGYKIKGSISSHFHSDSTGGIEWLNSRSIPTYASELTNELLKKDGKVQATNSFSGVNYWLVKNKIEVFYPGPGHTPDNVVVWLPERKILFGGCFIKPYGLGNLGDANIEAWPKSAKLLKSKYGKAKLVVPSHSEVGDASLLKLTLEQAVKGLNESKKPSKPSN

[12] = molecular target: T6, Streptokinase A (Streptococcus pyogenes serotype M1, UniProt P10520); assay: viability-normalized secreted streptokinase activity reduction – plasminogen activation absorbance, OD405, dose response (AID 1914); format: functional, Streptococcus pyogenes M1 GAS;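 note: secreted streptokinase activity via plasminogen activation per viability signal from cell pellet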
T6 sequence (P10520 whole entry): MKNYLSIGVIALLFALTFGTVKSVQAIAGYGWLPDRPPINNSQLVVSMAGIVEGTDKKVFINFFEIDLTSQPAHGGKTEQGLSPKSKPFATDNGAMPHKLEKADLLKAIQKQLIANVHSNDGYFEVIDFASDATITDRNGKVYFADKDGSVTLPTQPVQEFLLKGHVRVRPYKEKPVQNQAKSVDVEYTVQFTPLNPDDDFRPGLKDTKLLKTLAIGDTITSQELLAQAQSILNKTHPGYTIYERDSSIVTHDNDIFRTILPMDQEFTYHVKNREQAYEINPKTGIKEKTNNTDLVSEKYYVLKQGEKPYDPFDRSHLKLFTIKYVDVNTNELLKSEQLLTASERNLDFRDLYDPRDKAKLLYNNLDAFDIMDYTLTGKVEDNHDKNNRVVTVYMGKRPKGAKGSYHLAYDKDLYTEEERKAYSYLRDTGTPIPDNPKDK

[13] = molecular target: T5, Beta-lactamase; assay: […] counterscreen for selective VIM-2 inhibitors: dose response biochemical high throughput screening assay to identify inhibitors of IMP-1 metallo-beta-lactamase.
[14] = molecular target: Beta-lactamase (Salmonella choleraesuis (strain SC-B67), UniProt Q5J463); assay: Epi-absorbance-based counterscreen for selective VIM-2 inhibitors: dose response biochemical high throughput screening assay to identify inhibitors of TEM-1 serine-beta-lactamase.
Sequence of Beta-lactamase (Salmonella choleraesuis (strain SC-B67), UniProt Q5J463) (Q5J463 whole entry, the tested form may be a part): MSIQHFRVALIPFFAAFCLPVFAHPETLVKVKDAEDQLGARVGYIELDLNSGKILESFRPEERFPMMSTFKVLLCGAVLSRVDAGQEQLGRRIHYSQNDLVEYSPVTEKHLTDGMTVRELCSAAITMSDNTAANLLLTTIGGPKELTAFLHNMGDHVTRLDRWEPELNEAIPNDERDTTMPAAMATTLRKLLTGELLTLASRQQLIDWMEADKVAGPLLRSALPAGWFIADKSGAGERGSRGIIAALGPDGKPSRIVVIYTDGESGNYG

[15] = molecular target: T7, RNA-binding protein pos-1 (Caenorhabditis elegans, UniProt G5EF15); assay: disruptors of C. elegans POS-1 RNA interaction – biochemical, fluorescence polarization, dose response (AID 1964);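 note: purified POS-1 fused to maltose binding protein made in E. coli; potency of compounds blocking POS-1 binding to fluorescent RNA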
T7 sequence (G5EF15 whole entry): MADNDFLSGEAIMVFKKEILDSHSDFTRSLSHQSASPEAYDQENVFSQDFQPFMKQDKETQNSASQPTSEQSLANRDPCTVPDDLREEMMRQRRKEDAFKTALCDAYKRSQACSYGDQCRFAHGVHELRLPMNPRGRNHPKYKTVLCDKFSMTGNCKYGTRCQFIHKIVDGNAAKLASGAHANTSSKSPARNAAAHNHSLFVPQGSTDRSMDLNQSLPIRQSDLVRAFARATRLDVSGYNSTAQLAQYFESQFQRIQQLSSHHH

[16] = molecular target: T8, Zinc finger protein mex-5 (Caenorhabditis elegans, UniProt Q9XUB2); assay: potency of MEX-5 RNA-binding blockers – biochemical, C. elegans, fluorescence polarization, dose response (AID 1960)
T8 sequence (Q9XUB2 whole entry): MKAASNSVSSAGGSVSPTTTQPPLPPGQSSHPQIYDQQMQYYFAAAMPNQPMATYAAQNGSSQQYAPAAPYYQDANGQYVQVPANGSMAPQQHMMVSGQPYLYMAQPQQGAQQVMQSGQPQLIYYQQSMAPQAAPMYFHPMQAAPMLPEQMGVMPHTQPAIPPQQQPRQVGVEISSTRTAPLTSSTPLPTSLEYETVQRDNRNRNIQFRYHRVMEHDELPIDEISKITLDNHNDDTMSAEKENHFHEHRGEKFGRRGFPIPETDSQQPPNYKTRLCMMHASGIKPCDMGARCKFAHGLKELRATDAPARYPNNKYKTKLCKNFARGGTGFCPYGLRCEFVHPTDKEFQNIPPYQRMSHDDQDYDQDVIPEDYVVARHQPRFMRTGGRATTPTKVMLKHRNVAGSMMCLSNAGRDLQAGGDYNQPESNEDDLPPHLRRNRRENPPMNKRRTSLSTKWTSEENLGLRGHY

[17] = test system: HEK293; assay: inhibition of NOD1-driven NF-kB reporter – cell-based, luminescence, uHTS, primary screen (AID 1578); format: functional; settings: Homo sapiens
[18] = molecular target: T9, Corticotropin-releasing factor receptor 2/Corticotropin-releasing factor-binding protein (Homo sapiens, UniProt P24387+Q13324); assay: activators of CRF receptor 2 with binding protein – uHTS hits, confirmation (AID 602473); format: functional; settings: read-out: EC50_Mean
T9 sequence (Q13324 whole entry): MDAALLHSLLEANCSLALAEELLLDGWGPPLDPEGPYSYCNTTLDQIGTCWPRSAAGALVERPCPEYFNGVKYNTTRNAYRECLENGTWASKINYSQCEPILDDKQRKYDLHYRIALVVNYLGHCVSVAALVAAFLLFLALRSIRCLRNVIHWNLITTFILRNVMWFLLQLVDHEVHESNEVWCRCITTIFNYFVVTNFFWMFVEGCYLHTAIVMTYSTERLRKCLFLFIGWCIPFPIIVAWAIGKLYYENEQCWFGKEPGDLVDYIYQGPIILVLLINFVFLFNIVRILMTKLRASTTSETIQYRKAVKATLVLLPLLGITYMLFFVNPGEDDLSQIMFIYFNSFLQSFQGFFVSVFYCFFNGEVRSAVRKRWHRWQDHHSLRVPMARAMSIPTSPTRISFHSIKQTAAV
T9 sequence (P24387 whole entry): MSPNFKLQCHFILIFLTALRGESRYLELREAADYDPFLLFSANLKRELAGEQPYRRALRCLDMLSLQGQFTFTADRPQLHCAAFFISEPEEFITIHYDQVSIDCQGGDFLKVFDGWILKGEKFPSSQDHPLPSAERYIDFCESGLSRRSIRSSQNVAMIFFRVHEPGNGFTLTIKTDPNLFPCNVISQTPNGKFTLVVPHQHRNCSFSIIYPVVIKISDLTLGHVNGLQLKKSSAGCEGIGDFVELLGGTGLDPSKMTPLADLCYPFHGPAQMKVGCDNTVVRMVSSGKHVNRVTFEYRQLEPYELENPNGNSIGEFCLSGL

[19] = test system: HEK293; assay: NOD2 signaling inhibitors in MDP-stimulated cells, cell-based, uHTS, luminescence (AID 2001); format: functional; settings: Homo sapiens
[20] = molecular target: Nucleotide-binding oligomerization domain-containing protein 2 (Homo sapiens, UniProt Q9HC29); assay: inhibition of NOD2-driven NF-kB reporter – cell-based, luminescence, uHTS, HEK293 (AID 1566); format: functional
Sequence of Nucleotide-binding oligomerization domain-containing protein 2 (Q9HC29 whole entry, the tested form may be a part): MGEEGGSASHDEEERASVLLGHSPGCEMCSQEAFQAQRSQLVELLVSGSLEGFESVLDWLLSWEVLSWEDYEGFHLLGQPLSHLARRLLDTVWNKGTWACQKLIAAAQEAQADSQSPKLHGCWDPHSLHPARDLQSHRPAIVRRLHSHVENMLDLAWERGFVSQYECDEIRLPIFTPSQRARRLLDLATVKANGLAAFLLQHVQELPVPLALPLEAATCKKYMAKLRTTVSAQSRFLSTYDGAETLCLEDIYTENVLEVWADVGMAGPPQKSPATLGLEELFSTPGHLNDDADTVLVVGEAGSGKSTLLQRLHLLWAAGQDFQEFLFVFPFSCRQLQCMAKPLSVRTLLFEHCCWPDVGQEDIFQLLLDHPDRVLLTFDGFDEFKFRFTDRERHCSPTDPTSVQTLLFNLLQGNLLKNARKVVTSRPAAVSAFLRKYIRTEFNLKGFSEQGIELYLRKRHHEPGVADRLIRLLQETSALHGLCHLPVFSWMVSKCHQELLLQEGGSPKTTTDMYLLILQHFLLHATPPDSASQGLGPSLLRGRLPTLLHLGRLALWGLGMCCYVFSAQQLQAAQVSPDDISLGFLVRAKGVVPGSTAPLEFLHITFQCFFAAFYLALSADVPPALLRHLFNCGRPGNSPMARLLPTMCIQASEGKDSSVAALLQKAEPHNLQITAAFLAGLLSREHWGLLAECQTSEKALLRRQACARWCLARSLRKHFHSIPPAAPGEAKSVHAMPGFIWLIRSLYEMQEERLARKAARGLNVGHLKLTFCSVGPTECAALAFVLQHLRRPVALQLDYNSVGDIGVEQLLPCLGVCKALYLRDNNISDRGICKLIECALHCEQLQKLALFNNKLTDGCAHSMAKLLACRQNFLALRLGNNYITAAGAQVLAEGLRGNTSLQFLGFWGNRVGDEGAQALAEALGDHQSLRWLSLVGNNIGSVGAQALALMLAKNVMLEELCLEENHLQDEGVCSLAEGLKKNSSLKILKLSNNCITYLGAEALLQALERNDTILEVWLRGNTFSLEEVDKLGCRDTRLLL

[21] = blockers of CRF-binding protein–CRF-R2 complex – cell-based, uHTS hits, 384-well, dose response (AID 651639); format: functional, Homo sapiens; settings: read-out: IC50_Mean
[22] = molecular target: T10, Fatty acid synthase (Homo sapiens, UniProt P49327); assay: inhibition of human FAS-TE enzyme activity – biochemical, kinetic fluorescence intensity, dose response (AID 624326); format: functional;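 note: rate of fluorescence rise from hydrolysis of a fluorogenic O-methyl fluorescein ester substrate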
T10 sequence (P49327 whole entry): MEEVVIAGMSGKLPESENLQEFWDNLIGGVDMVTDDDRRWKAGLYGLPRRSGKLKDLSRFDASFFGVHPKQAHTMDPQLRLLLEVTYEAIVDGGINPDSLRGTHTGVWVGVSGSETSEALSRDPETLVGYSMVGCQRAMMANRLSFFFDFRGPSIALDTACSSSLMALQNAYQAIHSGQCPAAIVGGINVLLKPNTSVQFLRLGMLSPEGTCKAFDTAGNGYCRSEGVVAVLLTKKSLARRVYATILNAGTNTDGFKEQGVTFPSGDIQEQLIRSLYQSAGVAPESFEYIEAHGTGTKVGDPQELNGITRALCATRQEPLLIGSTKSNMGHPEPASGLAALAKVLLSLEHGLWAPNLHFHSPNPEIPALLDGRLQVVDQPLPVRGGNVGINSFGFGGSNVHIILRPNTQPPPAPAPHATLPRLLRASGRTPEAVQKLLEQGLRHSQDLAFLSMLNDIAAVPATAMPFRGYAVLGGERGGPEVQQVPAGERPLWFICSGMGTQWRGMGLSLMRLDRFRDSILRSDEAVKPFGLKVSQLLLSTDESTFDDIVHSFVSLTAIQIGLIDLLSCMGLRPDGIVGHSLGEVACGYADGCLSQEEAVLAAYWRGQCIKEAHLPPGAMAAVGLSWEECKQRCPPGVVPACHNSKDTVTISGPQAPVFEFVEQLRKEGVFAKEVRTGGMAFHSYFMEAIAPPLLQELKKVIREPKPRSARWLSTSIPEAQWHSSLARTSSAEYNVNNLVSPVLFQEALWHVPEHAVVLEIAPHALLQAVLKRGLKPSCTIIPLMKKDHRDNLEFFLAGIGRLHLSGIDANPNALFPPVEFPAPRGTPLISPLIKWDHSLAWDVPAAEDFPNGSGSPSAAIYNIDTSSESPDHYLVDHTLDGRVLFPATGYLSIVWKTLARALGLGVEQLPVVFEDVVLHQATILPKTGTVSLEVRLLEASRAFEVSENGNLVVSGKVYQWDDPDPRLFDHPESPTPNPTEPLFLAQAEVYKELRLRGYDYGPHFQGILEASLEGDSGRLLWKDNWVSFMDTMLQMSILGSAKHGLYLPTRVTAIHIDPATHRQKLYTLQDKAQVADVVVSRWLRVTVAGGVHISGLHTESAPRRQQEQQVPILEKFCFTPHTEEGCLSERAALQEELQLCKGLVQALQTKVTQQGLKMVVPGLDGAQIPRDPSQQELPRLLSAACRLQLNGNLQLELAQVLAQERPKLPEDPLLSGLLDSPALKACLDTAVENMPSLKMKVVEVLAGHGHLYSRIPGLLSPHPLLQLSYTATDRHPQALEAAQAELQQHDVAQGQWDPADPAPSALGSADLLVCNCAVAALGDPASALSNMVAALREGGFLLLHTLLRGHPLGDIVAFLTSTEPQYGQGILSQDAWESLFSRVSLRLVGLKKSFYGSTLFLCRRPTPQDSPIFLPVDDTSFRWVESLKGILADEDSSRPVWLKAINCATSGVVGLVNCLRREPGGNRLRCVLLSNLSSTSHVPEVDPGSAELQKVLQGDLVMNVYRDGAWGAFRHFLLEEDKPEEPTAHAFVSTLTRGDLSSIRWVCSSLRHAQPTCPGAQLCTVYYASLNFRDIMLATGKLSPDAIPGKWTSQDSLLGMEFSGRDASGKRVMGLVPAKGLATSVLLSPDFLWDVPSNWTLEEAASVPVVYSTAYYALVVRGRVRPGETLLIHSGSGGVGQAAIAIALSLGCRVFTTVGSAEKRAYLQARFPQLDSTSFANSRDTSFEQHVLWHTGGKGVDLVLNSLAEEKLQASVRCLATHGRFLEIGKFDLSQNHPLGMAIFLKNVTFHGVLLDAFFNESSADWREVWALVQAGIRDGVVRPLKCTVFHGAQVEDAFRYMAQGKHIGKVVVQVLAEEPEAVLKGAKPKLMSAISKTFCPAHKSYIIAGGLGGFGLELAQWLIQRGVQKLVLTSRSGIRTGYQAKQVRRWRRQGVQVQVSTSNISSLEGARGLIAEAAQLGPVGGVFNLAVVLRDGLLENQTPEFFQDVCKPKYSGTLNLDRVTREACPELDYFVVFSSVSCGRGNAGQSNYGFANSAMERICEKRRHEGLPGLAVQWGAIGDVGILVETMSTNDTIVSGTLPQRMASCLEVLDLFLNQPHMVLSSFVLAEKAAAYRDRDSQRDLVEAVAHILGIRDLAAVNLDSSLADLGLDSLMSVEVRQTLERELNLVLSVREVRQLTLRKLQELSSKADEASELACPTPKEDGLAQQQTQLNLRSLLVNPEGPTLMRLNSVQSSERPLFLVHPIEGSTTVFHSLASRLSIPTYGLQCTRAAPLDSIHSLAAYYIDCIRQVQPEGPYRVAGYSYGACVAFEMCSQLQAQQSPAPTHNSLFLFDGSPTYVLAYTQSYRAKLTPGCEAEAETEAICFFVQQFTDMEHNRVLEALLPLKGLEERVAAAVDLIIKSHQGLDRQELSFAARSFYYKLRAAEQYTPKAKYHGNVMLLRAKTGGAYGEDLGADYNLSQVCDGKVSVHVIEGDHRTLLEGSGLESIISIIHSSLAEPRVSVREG

[23] = test system: HEK293; assay: cells; format: functional, cell-based; settings: Homo sapiens
[24] = molecular target: T10, Fatty acid synthase; assay: inhibition of human FAS-TE enzyme activity – biochemical, endpoint fluorescence intensity, uHTS hits, dose response (AID 624327); format: functional;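 note: fluorescence from hydrolysis of an O-methyl fluorescein acyl ester substrate by the enzyme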
[25] = test system: HEK293; assay: cells; format: functional, cell-based; settings: Homo sapiens; remark: listed apart in the source
[26] = molecular target: T9, Corticotropin-releasing factor receptor 2/Corticotropin-releasing factor-binding protein; assay: Dose Response confirmation of uHTS hits for small molecule antagonists of the CRF-binding protein and CRF-R2 receptor complex.; format: functional; settings: read-out: IC50_Mean
[27] = test system: HEK293; assay: cells; format: functional, cell-based; settings: Homo sapiens; remark: listed apart in the source
[28] = Luminescence Cell-Based Dose Retest to Confirm Inhibitors of Cancer Stem Cells. [Related pubchem assays (depositor defined):AID2717, AID2721]; format: functional; settings: Homo sapiens
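Throughout, for AC50: cells exposed to compound for roughly 70 hours or longer before luminescence read.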

COc1ccc(S[C@@H](CCN2CC[C@H](C)CCC2=O)c2ccccc2)cc1
IC50 [1]: 19.3 µM (inactive) | IC50 [2]: > 69.5 µM (inactive)

COc1cccc(C(=O)NNC(=O)C(=O)Nc2ccc(C)c(Cl)c2)c1
IC50 [3]: > 69.5 µM (inactive) | IC50 [4]: 8.71 µM (active)

O=S(=O)(Nc1nccs1)c1ccc(Nc2nnc(-c3ccccc3)c3ccccc23)cc1
IC50 [5]: 5.9 µM (active) | IC50 [6]: 29.2 µM (active) | EC50 [7]: 1.06 µM (active) | EC50 [8]: 3.67 µM (active)

CCOC(=O)COc1ccc2c(c1)C(=O)CC(C)(C)O2
IC50 [9]: 1.55 µM (active)

Cc1cccc(Nc2ccccc2C(=O)NCc2ccco2)c1C
Ki [10]: > 66.7 µM (inactive)

Cc1cc(C)n(-c2nc(SCC(=O)O)c3c4c(sc3n2)COC(C)(C)C4)n1
IC50 [11]: > 59.6 µM (inactive) | EC50 [12]: > 150 µM (not active) | EC50 [7]: 8.1 µM (active) | IC50 [13]: > 59.6 µM (inactive) | EC50 [8]: > 150 µM (not active) | IC50 [14]: > 59.6 µM (inactive)

CCCCC1=CC2=CC(=O)C(C)(OC(=O)CCc3ccccc3)C(=O)C2=CO1 (stereo not given)
IC50 [5]: 8.81 µM (active) | IC50 [6]: 19.8 µM (active) | EC50 [15]: 41.6 µM (active) | EC50 [16]: > 150 µM (not active)

O=[N+]([O-])c1ccc(-c2ccccc2)c([As](=O)(O)O)c1
IC50 [11]: > 59.6 µM (inactive) | IC50 [13]: > 59.6 µM (inactive) | IC50 [14]: > 59.6 µM (inactive)

O=C1S/C(=C\c2ccc(O)c([N+](=O)[O-])c2)C(=O)N1Cc1cccc([N+](=O)[O-])c1
EC50 [17]: 4.33 µM (active) | EC50 [18]: > 53 µM (inactive) | IC50 [19]: 5.79 µM (inactive) | EC50 [20]: 4.39 µM (active) | IC50 [21]: > 20 µM (inactive) | IC50 [22]: 3.73 µM (active) | IC50 [23]: > 20 µM (inactive) | IC50 [24]: 3.83 µM (active) | IC50 [25]: 17.1 µM (active) | IC50 [26]: 4.71 µM (active) | IC50 [27]: 7.53 µM (active)

Cc1ccccc1N=C(NOCc1ccc(Cl)cc1Cl)c1nonc1N
AC50 [28]: 3.53 µM (active) | IC50 [4]: 13.3 µM (inactive)

Cc1ccccc1NC(=NOCc1ccc(Cl)cc1Cl)c1nonc1N
IC50 [3]: > 69.5 µM (inactive)

COC(=O)[C@]12C[C@H](CC(=O)NCCCCc3ccccc3)C(=O)N(Cc3cccc4ccccc34)C1=C[C@H](C(C)C)O[C@@H]2C1CC1
IC50 [1]: > 7.72 µM (active) | IC50 [2]: > 69.5 µM (inactive)

CN(C)/C=N/c1nc2nccc(-c3cccc(Cl)c3)n2n1
IC50 [9]: 1.15 µM (active)
